Patent US20250179051A1, “PYRIMIDINLY-OXY-QUINOLINE BASED HERBICIDAL COMPOUNDS” (SYNGENTA CROP PROTECTION AG, priority 2022, published 2025)

Experiments:
Format in all cases: in vivo
Settings in all cases: 250 g/ha, evaluated after 13 days, five-point scale
[1] = test system: Amaranthus retoflexus (AMARE); assay: Post-emergence herbicide glasshouse test
In short: (§1)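 Spray at 250 g/ha (unless stated), acetone/water 50:50 + 0.5% Tween 20; pre-em 1 d post-sowing, post-em after 8 d growth. Glasshouse 24/16 °C, 14 h light, 65% RH, watered twice daily. % damage read at 13 d, scored 1 (0–20%) to 5 (81–100%).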

[2] = test system: Amaranthus palmeri (AMAPA); assay: Post-emergence herbicide glasshouse test
In short: as §1

[3] = test system: Ipomoea hederacea (IPOHE); assay: Post-emergence herbicide glasshouse test
In short: as §1

[4] = test system: Echinochloa crus-galli (ECHCG); assay: Post-emergence herbicide glasshouse test
In short: as §1

Setaria faberi (SETFA) [5] = assay: Post-emergence herbicide glasshouse test
In short: as §1

[6] = test system: Amaranthus retoflexus (AMARE); assay: Pre-emergence herbicide glasshouse test
In short: as §1

[7] = test system: Amaranthus palmeri (AMAPA); assay: Pre-emergence herbicide glasshouse test
In short: as §1

[8] = test system: Ipomoea hederacea (IPOHE); assay: Pre-emergence herbicide glasshouse test
In short: as §1

[9] = test system: Echinochloa crus-galli (ECHCG); assay: Pre-emergence herbicide glasshouse test
In short: as §1

Setaria faberi (SETFA) [10] = assay: Pre-emergence herbicide glasshouse test
In short: as §1

| Structure (SMILES) | percentage damage caused to the plant, AMARE [1] | percentage damage caused to the plant, AMAPA [2] | percentage damage caused to the plant, IPOHE [3] | percentage damage caused to the plant, ECHCG [4] | percentage damage caused to the plant, SETFA (Setaria faberi (SETFA) [5]) | percentage damage caused to the plant, AMARE [6] | percentage damage caused to the plant, AMAPA [7] | percentage damage caused to the plant, IPOHE [8] | percentage damage caused to the plant, ECHCG [9] | percentage damage caused to the plant, SETFA (Setaria faberi (SETFA) [10]) |
| --- | --- | --- | --- | --- | --- | --- | --- | --- | --- | --- |
| O=C(c1ccncc1)c1nc(C(F)(F)F)nc2cccc(Oc3ncc(Cl)cn3)c12 [Compound 1.036] | 3 (3=41-60%) | 3 (3=41-60%) | 1 (1=0-20%) | 1 (1=0-20%) | 1 (1=0-20%) | 3 (3=41-60%) | 4 (4=61-80%) | 1 (1=0-20%) | 3 (3=41-60%) | 3 (3=41-60%) |
| OCC(O)CCc1nc(C(F)(F)F)nc2cccc(Oc3ncc(Cl)cn3)c12 (centres unmarked) [Compound 1.037, 4-[5-(5-chloropyrimidin-2-yl)oxy-2-(trifluoromethyl)quinazolin-4-yl]butane-1,2-diol] | 3 (3=41-60%) | 3 (3=41-60%) | 1 (1=0-20%) | 1 (1=0-20%) | 1 (1=0-20%) | 1 (1=0-20%) | 1 (1=0-20%) | 1 (1=0-20%) | 1 (1=0-20%) | 1 (1=0-20%) |
| O=CCCc1nc(C(F)(F)F)nc2cccc(Oc3ncc(Cl)cn3)c12 [Compound 1.038, 3-[5-(5-chloropyrimidin-2-yl)oxy-2-(trifluoromethyl)quinazolin-4-yl]propanal] | 4 (4=61-80%) | 3 (3=41-60%) | 3 (3=41-60%) | 1 (1=0-20%) | 1 (1=0-20%) | 2 (2=21-40%) | 1 (1=0-20%) | 1 (1=0-20%) | 1 (1=0-20%) | 1 (1=0-20%) |
| OCCCc1nc(C(F)(F)F)nc2cccc(Oc3ncc(Cl)cn3)c12 [Compound 1.039, 3-[5-(5-chloropyrimidin-2-yl)oxy-2-(trifluoromethyl)quinazolin-4-yl]propan-1-ol] | 4 (4=61-80%) | 3 (3=41-60%) | 3 (3=41-60%) | 1 (1=0-20%) | 1 (1=0-20%) | 3 (3=41-60%) | 2 (2=21-40%) | 1 (1=0-20%) | 2 (2=21-40%) | 2 (2=21-40%) |
| FC(F)(F)c1nc(C2CC2)c2c(Oc3ncc(Cl)cn3)cccc2n1 [Compound 1.041, 5-(5-chloropyrimidin-2-yl)oxy-4-cyclopropyl-2-(trifluoromethyl)quinazoline] | 5 (5=81-100%) | 5 (5=81-100%) | 2 (2=21-40%) | 3 (3=41-60%) | 5 (5=81-100%) | 2 (2=21-40%) | 5 (5=81-100%) | 1 (1=0-20%) | 3 (3=41-60%) | 5 (5=81-100%) |
| FC(F)(F)c1nc(CCC2CCCCC2)c2c(Oc3ncc(Cl)cn3)cccc2n1 [Compound 1.045] | 4 (4=61-80%) | 4 (4=61-80%) | 3 (3=41-60%) | 2 (2=21-40%) | 2 (2=21-40%) | 3 (3=41-60%) | 5 (5=81-100%) | 1 (1=0-20%) | 4 (4=61-80%) | 4 (4=61-80%) |
| CCO/N=C\CCc1nc(C(F)(F)F)nc2cccc(Oc3ncc(Cl)cn3)c12 [Compound 1.047] | 5 (5=81-100%) | 4 (4=61-80%) | 5 (5=81-100%) | 5 (5=81-100%) | 5 (5=81-100%) | 4 (4=61-80%) | 4 (4=61-80%) | 2 (2=21-40%) | 5 (5=81-100%) | 5 (5=81-100%) |
| FC(F)(F)c1nc(CBr)c2c(Oc3ncc(Cl)cn3)cccc2n1 [Compound 1.048, 4-(bromomethyl)-5-(5-chloropyrimidin-2-yl)oxy-2-(trifluoromethyl)quinazoline] | 5 (5=81-100%) | 4 (4=61-80%) | 2 (2=21-40%) | 2 (2=21-40%) | 4 (4=61-80%) | 5 (5=81-100%) | 5 (5=81-100%) | 1 (1=0-20%) | 3 (3=41-60%) | 4 (4=61-80%) |
| Cc1ccc(Oc2ncc(Cl)cn2)c2c(CCC3CC3)nc(C(F)(F)F)nc12 [Compound 1.059] | 2 (2=21-40%) | 2 (2=21-40%) | 3 (3=41-60%) | 1 (1=0-20%) | 1 (1=0-20%) | 1 (1=0-20%) | 1 (1=0-20%) | 1 (1=0-20%) | 1 (1=0-20%) | 1 (1=0-20%) |
| FC(F)(F)c1nc(CCC2CC2)c2c(Oc3ncc(Cl)cn3)ccc(Br)c2n1 [Compound 1.060] | 3 (3=41-60%) | 3 (3=41-60%) | 3 (3=41-60%) | 1 (1=0-20%) | 2 (2=21-40%) | 1 (1=0-20%) | 2 (2=21-40%) | 1 (1=0-20%) | 1 (1=0-20%) | 2 (2=21-40%) |
| CC(=NOCC1CC1)c1nc(C(F)(F)F)nc2cccc(Oc3ncc(Cl)cn3)c12 [Compound 1.065] | 2 (2=21-40%) | 2 (2=21-40%) | 1 (1=0-20%) | 1 (1=0-20%) | 1 (1=0-20%) | 1 (1=0-20%) | 1 (1=0-20%) | 1 (1=0-20%) | 1 (1=0-20%) | 1 (1=0-20%) |
| CON=C(C)c1nc(C(F)(F)F)nc2cccc(Oc3ncc(Cl)cn3)c12 [Compound 1.066] | 1 (1=0-20%) | 2 (2=21-40%) | 1 (1=0-20%) | 1 (1=0-20%) | 1 (1=0-20%) | 1 (1=0-20%) | 4 (4=61-80%) | 1 (1=0-20%) | 1 (1=0-20%) | 1 (1=0-20%) |
| C=CCON=CCCc1nc(C(F)(F)F)nc2cccc(Oc3ncc(Cl)cn3)c12 [Compound 1.067] | 4 (4=61-80%) | 5 (5=81-100%) | 3 (3=41-60%) | 4 (4=61-80%) | 5 (5=81-100%) | 3 (3=41-60%) | 5 (5=81-100%) | 1 (1=0-20%) | 5 (5=81-100%) | 5 (5=81-100%) |
| FC(F)(F)c1nc(CCC=NOCC2CC2)c2c(Oc3ncc(Cl)cn3)cccc2n1 [Compound 1.068] | 5 (5=81-100%) | 5 (5=81-100%) | 1 (1=0-20%) | 5 (5=81-100%) | 5 (5=81-100%) | 4 (4=61-80%) | 5 (5=81-100%) | 1 (1=0-20%) | 3 (3=41-60%) | 5 (5=81-100%) |
